Values joined by “and” are separate entries in the source; they are usually repeats but may differ in a detail not shown here. Equal entries are not always repeated. Where two headings read alike, the source gives them in different places.
Columns and labels:
2P-ERK2 [1] = molecular target: T1, 2P-ERK2 (Rattus norvegicus, UniProt P63086); conditions: for mode of inhibition (Lineweaver-Burk replots): 2P-ERK2, varying ATP; for Ki: 2P-ERK2, rapid on/off inhibitors, varying ATP, 20 μM sub-D
ERK2 = conditions: read-out: IC50 Published previously; cited from earlier work
2P-ERK2 [2] = molecular target: T1, 2P-ERK2; assay: Preincubation / 300-fold dilution experiment, recovery of activity; conditions: for kinetic behaviour of binding and release: linear product accumulation, rapid recovery on dilution
2P-ERK2 [3] = molecular target: T1, 2P-ERK2; conditions: read-out: IC50 This study; 2P-ERK2, 20 μM sub-D, 100 μM ATP, 25 °C; eq 1
2P-ERK2 [4] = molecular target: T1, 2P-ERK2; assay: Morrison titration experiment for tight-binding inhibitors; type: biochemical
ERK [5] = conditions: read-out: Kd in vitro; cited from earlier work
ERK [6] = conditions: read-out: IC50 in vivo (biological activity); cited from earlier work
2P-ERK2 [7] = molecular target: T1, 2P-ERK2; type: biochemical
0P-ERK2 = 0P-ERK2 (Rattus norvegicus, UniProt P63086); assay: biochemical
0P-ERK2, sequence (P63086 whole entry): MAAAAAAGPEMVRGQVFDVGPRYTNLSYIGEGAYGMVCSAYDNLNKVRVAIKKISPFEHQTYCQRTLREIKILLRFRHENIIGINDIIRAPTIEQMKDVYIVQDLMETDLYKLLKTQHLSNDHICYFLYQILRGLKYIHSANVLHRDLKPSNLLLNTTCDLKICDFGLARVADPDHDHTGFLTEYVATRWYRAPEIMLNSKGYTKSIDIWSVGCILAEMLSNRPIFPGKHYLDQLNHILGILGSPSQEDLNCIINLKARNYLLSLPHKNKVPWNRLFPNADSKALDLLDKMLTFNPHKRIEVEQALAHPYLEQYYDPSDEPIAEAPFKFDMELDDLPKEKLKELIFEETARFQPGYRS

T1 sequence (P63086 whole entry): as above

For `Nc1[nH]nc2nnc(-c3c(-c4ccccc4)nn4ccccc34)cc12` [FR180204], the “mode of inhibition (Lineweaver-Burk replots)” value (2P-ERK2 [1]) is given as “competitive versus ATP”, the Ki (2P-ERK2 [1]) is given as 63 ± 17 nM and the IC50 (ERK2) is given as 140 nM. The “kon (rate constant for association), lower bound” value (2P-ERK2 [2]; 2P-ERK2, inferred from dissociation rate constant >0.05 s^−1) was >0.8 ^d μM^−1 s^−1, the “kinetic behaviour of binding and release” value (2P-ERK2 [2]; 2P-ERK2) was “rapid on/off inhibitors” and the IC50 (2P-ERK2 [3]) was 330 ± 64 nM.
For `O=C(Nc1ccc2[nH]nc(-c3ccncc3)c2c1)[C@@H]1CCN(CC(=O)N2CCN(c3ccc(-c4ncccn4)cc3)CC2)C1` [SCH772984], the Ki (2P-ERK2 [4]) is given as 0.12 ± 0.1 nM, the Kd (ERK [5]) is given as 0.19 nM and the IC50 (ERK [6]) is given as < 100 nM and 60 nM. For the same molecule, the “kinetic behaviour of onset of inhibition” value (2P-ERK2 [7]; 2P-ERK2, curved product accumulation) was “slow-onset inhibition”, the kon (2P-ERK2 [7]; read-out: kon (apparent rate constant for association)) was 2.8e+06 ± 340000 M⁻¹ s⁻¹ and the IC50 (ERK2) was 0.24 nM. For the same molecule, the Kd (2P-ERK2 [2]) was 0.11 ± 0.021 nM, the “residence time (inverse of koff)” value (2P-ERK2 [2]; 2P-ERK2, predicted from koff) was 0.9 h and the koff (2P-ERK2 [2]; read-out: koff (dissociation rate constant)) was 0.000306 s⁻¹. The Ki (0P-ERK2) was 0.12 ± 0.04 nM.
For `Nc1nccc(-c2c(-c3ccc(F)cc3)ncn2C2CCNCC2)n1` [SB220025], the “kinetic behaviour of binding and release” value (2P-ERK2 [2]; 2P-ERK2) was “rapid on/off inhibitors”.
In the case of `Cn1cnc2c(NCc3ccccc3)nc(NCCO)nc21` [Olomoucin], the “mode of inhibition (Lineweaver-Burk replots)” value (2P-ERK2 [1]) is reported as “competitive versus ATP”, the Ki (2P-ERK2 [1]) is reported as 10800 nM and the “kinetic behaviour of binding and release” value (2P-ERK2 [2]; 2P-ERK2) is reported as “rapid on/off inhibitors”. For the same molecule, the IC50 (2P-ERK2 [3]) was 33000 nM.

Source: article PMC4724192 (Biochemistry, 2014)
